Measurements published in the supplement of paper PMC10331698.
± gives the standard deviation of the averaged measurements.

Tests used:
Assay in all cases: level (log10 ratio to DMSO vehicle control); higher = higher biomarker level / cell amount than vehicle control
[1] = compound: O=S(=O)(Cl)C(F)(F)C(F)(F)C(F)(F)C(F)(F)C(F)(F)C(F)(F)C(F)(F)C(F)(F)F [Perfluoro-1-octanesulfonyl chloride]; conditions: in DMSO
Description: (§1)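 BioMAP Diversity Plus panel of 12 human primary cell co-culture systems (3C, 4H, LPS, SAg, BT, BF4T, BE3C, CASM3C, HDF3CGF, KF3CT, MyoF, Mphg). Compounds were added 1 h before stimulation and left for 24 h (MyoF 48 h; BT 72 h for soluble read-outs or 6 d for IgG). Biomarkers were read by ELISA, cytotoxicity by SRB, PBMC viability and proliferation by Alamar Blue. Each well value was divided by the mean of 8 DMSO control wells on the same plate and log10 transformed; duplicate blinded samples were tested at 4 concentrations.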

[2] = compound: NC(=O)C(F)(F)C(F)(F)C(F)(F)C(F)(F)F [Nonafluoropentanamide]; conditions: in DMSO
Description: as §1

[3] = compound: C=C(C)C(=O)OCCC(F)(F)C(F)(F)C(F)(F)C(F)(F)C(F)(F)C(F)(F)F [6:2 Fluorotelomer methacrylate]; conditions: in DMSO
Description: as §1

[4] = compound: OCC(F)(F)C(F)(F)C(F)(F)CO [Hexafluoroamylene glycol]; conditions: in DMSO
Description: as §1

[5] = compound: FC(F)(F)C(F)(F)C(F)(F)C(F)(F)C(F)(F)C(F)(F)C(F)(F)I [1-Iodopentadecafluoroheptane]; conditions: in DMSO
Description: as §1

[6] = compound: FC(F)(F)C(F)(F)C(F)(F)CC1CO1 [1H,1H-Heptafluorobutyl epoxide]; conditions: in DMSO
Description: as §1

[7] = compound: NC(=O)C(F)(F)C(F)(F)C(F)(F)C(F)(F)C(N)=O [Octafluoroadipamide]; conditions: in DMSO
Description: as §1

[8] = compound: COC(=O)C(F)(F)C(F)(F)OC(F)(C(F)(F)F)C(F)(F)OC(F)=C(F)F [Methyl perfluoro(3-(1-ethenyloxypropan-2-yloxy)propanoate)]; conditions: in DMSO
Description: as §1

[9] = compound: FC(F)(F)C(F)(F)C(F)(F)CI [Heptafluorobutyl iodide]; conditions: in DMSO
Description: as §1

[10] = compound: O=S(=O)(F)C(F)(F)C(F)(F)C(F)(F)C(F)(F)C(F)(F)C(F)(F)C(F)(F)C(F)(F)F [Perfluorooctanesulfonyl fluoride]; conditions: in DMSO
Description: as §1

[11] = compound: O=S(=O)(O)CCC(F)(F)C(F)(F)C(F)(F)C(F)(F)C(F)(F)C(F)(F)F [6:2 Fluorotelomer sulfonic acid]; conditions: in DMSO
Description: as §1

[12] = compound: O=C(O)C=CC(F)(C(F)(F)F)C(F)(F)F [3-(Perfluoroisopropyl)-2-propenoic acid]; conditions: in DMSO
Description: as §1

[13] = compound: NC(=O)C(F)(F)C(F)(F)C(F)(F)C(F)F; conditions: in DMSO
Description: as §1

[14] = compound: O=S(=O)(O)C(F)(F)C(F)(F)C(F)(F)C(F)(F)C(F)(F)C(F)(F)C(F)(F)C(F)(F)C(F)(F)C(F)(F)F [Sodium perfluorodecanesulfonate]; conditions: in DMSO
Description: as §1

[15] = compound: FC(F)(F)C(F)(F)CNCC(F)(F)C(F)(F)F [Bis(1H,1H-perfluoropropyl)amine]; conditions: in DMSO
Description: as §1

[16] = compound: FC(F)(F)C(F)(F)C(F)(F)C(F)(F)C(F)(F)C(F)(F)CC1CO1 [3-(Perfluorohexyl)-1,2-epoxypropane]; conditions: in DMSO
Description: as §1

[17] = compound: NS(=O)(=O)C(F)(F)C(F)(F)C(F)(F)C(F)(F)C(F)(F)C(F)(F)F [Perfluorohexanesulfonamide]; conditions: in DMSO
Description: as §1

[18] = compound: O=C(O)C(F)(F)C(F)(F)C(F)(F)C(F)(F)C(F)(F)C(F)(F)C(F)(F)C(F)(F)C(F)(F)C(F)F [11-H-Perfluoroundecanoic acid]; conditions: in DMSO
Description: as §1

[19] = compound: C=CC(=O)OCC(F)(F)C(F)(F)C(F)(F)COC(=O)C=C [1H,1H,5H,5H-Perfluoro-1,5-pentanediol diacrylate]; conditions: 6700 nM; in DMSO
Description: as §1

BF4T:Keratin 8/18 was tested, and the “level (log10)” value ([1]; 6700 nM) was 0.0075 ± 0.00071, the “level (log10)” value ([1]; 20000 nM) was 0.0125 ± 0.00071 and the “level (log10)” value ([1]; 60000 nM) was -0.0805 ± 0.035. The “level (log10)” value ([2]; 6700 nM) was -0.008 ± 0.013, the “level (log10)” value ([2]; 20000 nM) was -0.0145 ± 0.015 and the “level (log10)” value ([2]; 60000 nM) was -0.0305 ± 0.042. The “level (log10)” value ([3]; 6700 nM) was -0.0305 ± 0.019, the “level (log10)” value ([3]; 20000 nM) was -0.0345 ± 0.044 and the “level (log10)” value ([3]; 60000 nM) was -0.054 ± 0.013. For the same test system, the “level (log10)” value ([4]; 6700 nM) was 0.0045 ± 0.018, the “level (log10)” value ([4]; 20000 nM) was -0.0075 ± 0.0092 and the “level (log10)” value ([4]; 60000 nM) was 0.0125 ± 0.013. The “level (log10)” value ([5]; 6700 nM) was -0.031 ± 0.021, the “level (log10)” value ([5]; 20000 nM) was -0.054 ± 0.0028 and the “level (log10)” value ([6]; 6700 nM) was -0.001 ± 0.011. The “level (log10)” value ([6]; 20000 nM) was -0.0025 ± 0.0064, the “level (log10)” value ([6]; 60000 nM) was -0.0235 ± 0.0078 and the “level (log10)” value ([7]; 6700 nM) was -0.0025 ± 0.0092. For the same test system, the “level (log10)” value ([7]; 20000 nM) was -0.004 ± 0.0014, the “level (log10)” value ([7]; 60000 nM) was 0.017 ± 0.033 and the “level (log10)” value ([8]; 6700 nM) was 0.029 ± 0.02. For the same test system, the “level (log10)” value ([8]; 20000 nM) was 0.015 ± 0.042, the “level (log10)” value ([9]; 6700 nM) was -0.022 ± 0.014 and the “level (log10)” value ([9]; 20000 nM) was -0.0265 ± 0.0035. The “level (log10)” value ([9]; 60000 nM) was -0.0045 ± 0.039, the “level (log10)” value ([10]; 6700 nM) was 0.0285 ± 0.033 and the “level (log10)” value ([10]; 20000 nM) was 0.003 ± 0.016. For the same test system, the “level (log10)” value ([10]; 60000 nM) was 0.0335 ± 0.0092, the “level (log10)” value ([11]; 6700 nM) was 0.0075 ± 0.019 and the “level (log10)” value ([11]; 20000 nM) was -0.0065 ± 0.016. The “level (log10)” value ([11]; 60000 nM) was 0.0045 ± 0.011, the “level (log10)” value ([12]; 6700 nM) was -0.018 ± 0.028 and the “level (log10)” value ([12]; 20000 nM) was -0.0135 ± 0.0021. For the same test system, the “level (log10)” value ([12]; 60000 nM) was -0.0035 ± 0.044, the “level (log10)” value ([13]; 6700 nM) was 0.004 ± 0.042 and the “level (log10)” value ([13]; 20000 nM) was 0.005 ± 0.011. The “level (log10)” value ([13]; 60000 nM) was 0.0135 ± 0.026, the “level (log10)” value ([14]; 1500 nM) was 0.02 ± 0.0071 and the “level (log10)” value ([14]; 4400 nM) was 0.005 ± 0.023. The “level (log10)” value ([14]; 13000 nM) was -0.0175 ± 0.015, the “level (log10)” value ([14]; 40000 nM) was -0.044 ± 0.023 and the “level (log10)” value ([15]; 6700 nM) was -0.0075 ± 0.0064. For the same test system, the “level (log10)” value ([15]; 20000 nM) was -0.019 ± 0.013, the “level (log10)” value ([15]; 60000 nM) was 0.015 ± 0.03 and the “level (log10)” value ([16]; 6700 nM) was -0.0045 ± 0.03. For the same test system, the “level (log10)” value ([16]; 20000 nM) was -0.014 ± 0.011, the “level (log10)” value ([16]; 60000 nM) was 0.015 ± 0.037 and the “level (log10)” value ([17]; 6700 nM) was -0.01 ± 0.033. The “level (log10)” value ([17]; 20000 nM) was -0.019 ± 0.017, the “level (log10)” value ([17]; 60000 nM) was -0.065 ± 0.067 and the “level (log10)” value ([18]; 6700 nM) was -0.0025 ± 0.011. For the same test system, the “level (log10)” value ([18]; 20000 nM) was -0.062 ± 0.0085 and the “level (log10)” value [19] was 0.0095 ± 0.0092.
